Counter-ions that a name gives are not always drawn. ± gives the standard deviation of the averaged measurements.
Tested on: HepaRG
Assay: LDH release cytotoxicity, % of total lysis control; higher = more cytotoxic
Conditions: 48 h
Summary of the method: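 Eight-point half-log series of test chemicals, the highest at 100 µM, were given in duplicate for 48 h to single-lot HepaRG cells on collagen I-coated 96-well plates in serum-free induction medium with 0.5% DMSO. A Tecan Safire read resorufin fluorescence from CytoTox-ONE as a measure of LDH in 50 µL spent medium, with 0.1% Triton X in total lysis wells. Percent cytotoxicity was normalized to on-plate vehicle and total lysis controls and averaged over the duplicates.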

SMILES	LDH release cytotoxicity (0.03162 µM) [%]	LDH release cytotoxicity (0.1 µM) [%]	LDH release cytotoxicity (0.3162278 µM) [%]	LDH release cytotoxicity (1 µM) [%]	LDH release cytotoxicity (3.16228 µM) [%]	LDH release cytotoxicity (10 µM) [%]	LDH release cytotoxicity (31.6228 µM) [%]	LDH release cytotoxicity (100 µM) [%]	LDH release cytotoxicity (0.0322552 µM) [%]	LDH release cytotoxicity (0.102 µM) [%]	LDH release cytotoxicity (0.322552 µM) [%]	LDH release cytotoxicity (1.02 µM) [%]	LDH release cytotoxicity (3.2255232 µM) [%]	LDH release cytotoxicity (10.2 µM) [%]	LDH release cytotoxicity (32.2552 µM) [%]	LDH release cytotoxicity (102 µM) [%]
CCCCCCCC(=O)O [Octanoic acid]	-1.17 ± 0.13	-1.02 ± 0.23	-0.609 ± 0.43	-0.537 ± 0.81	-0.391 ± 0.73	-0.933 ± 1.1	-0.626 ± 0.1	0.799 ± 0.12	–	–	–	–	–	–	–	–
Cc1oc(-c2ccccc2)nc1CCOc1cccc2c1ccn2CCC(=O)O	-0.496 ± 0.49	-1.56 ± 0.14	-1.37 ± 1.4	-1.71 ± 0.068	-1.03 ± 0.61	-0.899 ± 0.13	-0.577 ± 0.44	45.3 ± 5.2	–	–	–	–	–	–	–	–
Cc1nc(N(C)C)nc(OC(=O)N(C)C)c1C [Pirimicarb]	-1.14 ± 0.57	-1.49 ± 0.94	-1.89 ± 0.61	-1.97 ± 1.2	-1.7 ± 0.12	-1.84 ± 0.15	-1.4 ± 0.24	-0.895 ± 1.2	–	–	–	–	–	–	–	–
C[Si](Cn1cncn1)(c1ccc(F)cc1)c1ccc(F)cc1 [Flusilazole]	-1.41 ± 1	-1.68 ± 0.17	-2.26 ± 0.57	-1.24 ± 0.29	-2.08 ± 0.094	-1.2 ± 0.38	13.7 ± 1.9	42.5 ± 8.6	–	–	–	–	–	–	–	–
CCCCCCCCCCO [1-Decanol]	-1.47 ± 0.66	-2.45 ± 1	-1.67 ± 0.81	-2.76 ± 0.3	-1.79 ± 1	-1.21 ± 0.22	-0.773 ± 0.89	0.757 ± 0.16	–	–	–	–	–	–	–	–
NC(N)=O [Urea]	-1.69 ± 0.59	-0.896 ± 0.18	-1.17 ± 0.012	-1.62 ± 0.5	-0.792 ± 0.012	-0.693 ± 0.13	-1.24 ± 0.23	1.24 ± 0.49	–	–	–	–	–	–	–	–
O=P(OCCCl)(OCCCl)OCCCl [Tris(2-chloroethyl) phosphate]	0.00945 ± 0.48	-0.629 ± 0.15	-0.615 ± 0.025	-1.15 ± 0.9	-0.623 ± 0.18	-0.4 ± 0.39	0.187 ± 0.64	0.367 ± 0.4	–	–	–	–	–	–	–	–
COP(N)(=O)SC (configuration not stated) [Methamidophos]	5.78 ± 0.77	2.73 ± 1.8	2.4 ± 2.4	3.67 ± 3.3	3.79 ± 2.6	3.76 ± 1.4	5.99 ± 0.16	6.57 ± 0.57	–	–	–	–	–	–	–	–
CC1(C)C(C=C(Cl)Cl)C1C(=O)OCc1cccc(Oc2ccccc2)c1 (configuration not stated) [Permethrin]	-0.121 ± 0.81	-0.859 ± 2	-0.0615 ± 0.15	-1.15 ± 0.33	-1.16 ± 0.27	-1.02 ± 1	-1.28 ± 0.3	-0.44 ± 0.19	–	–	–	–	–	–	–	–
CC(Oc1ccc(CNC(=O)c2cccnc2Oc2ccc3c(c2)OCO3)c(F)c1)C(=O)O (configuration not stated)	0.432 ± 0.73	-0.868 ± 0.12	-1.04 ± 0.64	-1.35 ± 0.25	-1.24 ± 0.19	-0.8947 ± 0.0016	-0.798 ± 0.6	-0.624 ± 0.43	–	–	–	–	–	–	–	–
CON=C(C(=O)OC)c1ccccc1CON=C(C)c1cccc(C(F)(F)F)c1 [Trifloxystrobin]	-0.083 ± 0.59	-0.478 ± 0.33	-0.545 ± 0.8	0.0357 ± 0.72	-0.301 ± 0.36	0.277 ± 0.53	0.163 ± 1.6	1.57 ± 1.4	–	–	–	–	–	–	–	–
Nc1ccc(N=Nc2ccccc2)cc1 [4-Aminoazobenzene]	-0.0491 ± 1.1	-1.19 ± 0.14	-1.19 ± 0.25	-1.05 ± 0.38	-1.2 ± 0.12	-0.585 ± 0.52	0.184 ± 1.3	0.63 ± 1.1	–	–	–	–	–	–	–	–
Brc1ccc(Oc2ccccc2)cc1 [p-Bromodiphenyl ether]	-0.849 ± 0.61	-1.4 ± 0.68	-1.66 ± 0.61	-1.42 ± 0.37	-0.77 ± 0.066	-0.841 ± 0.23	0.599 ± 0.93	3.7 ± 1.8	–	–	–	–	–	–	–	–
[O-][Cl+]O [Sodium chlorite]	0.165 ± 0.73	0.219 ± 1.2	-0.973 ± 0.84	-1.49 ± 0.98	-1.49 ± 0.44	0.0935 ± 0.52	-0.775 ± 0.093	1.68 ± 0.64	–	–	–	–	–	–	–	–
CC(=O)OCC(COC(C)=O)OC(C)=O [Triacetin]	-0.962 ± 0.12	-3.22 ± 0.49	-1.81 ± 0.69	-1.13 ± 0.65	-1.14 ± 0.036	-0.506 ± 0.1	0.136 ± 0.76	0.128 ± 0.77	–	–	–	–	–	–	–	–
O=C(c1ccc(OCCN2CCCCC2)cc1)c1c(-c2ccc(O)cc2)sc2cc(O)ccc12 [Raloxifene hydrochloride]	-1.32 ± 0.65	-1.13 ± 1.1	-0.881 ± 0.13	-1.8 ± 0.23	-2.08 ± 1.1	-1.62 ± 0.17	-1.9 ± 0.18	73.39 ± 0.7	–	–	–	–	–	–	–	–
C#CCOC(=O)C(C)Oc1ccc(Oc2ncc(Cl)cc2F)cc1 (configuration not stated) [Clodinafop-propargyl]	-1.35 ± 0.68	-1.3 ± 0.75	-1.68 ± 0.23	-0.544 ± 0.27	-1.29 ± 0.021	-0.851 ± 0.15	-0.0728 ± 0.36	0.27 ± 0.25	–	–	–	–	–	–	–	–
CCOP(=S)(OCC)SCSCC [Phorate]	-1.85 ± 0.87	-2.54 ± 0.18	-2.48 ± 0.53	-2.38 ± 0.48	-2.32 ± 0.28	-1.2 ± 0.89	-1.22 ± 0.69	-0.0088 ± 0.35	–	–	–	–	–	–	–	–
CCN(CC)C(=S)SSC(=S)N(CC)CC [Tetraethylthiuram disulfide]	–	–	–	–	–	–	–	–	-1.43 ± 0.25	-2.15 ± 0.58	-2.5 ± 0.25	-2.4 ± 0.028	-1.91 ± 0.23	-1.62 ± 0.69	-0.659 ± 0.28	3.01 ± 0.7

Source: the supplement of paper PMC7840683
